{"source": "patent US20060293295A1", "about": "“Pharmaceutical composition comprising progestogens and/or estrogens and 5-methyl- (6S)-tetrahydrofolate” (priority 2005, published 2006)", "key": {"[1]": {"assay": "Compatibility investigation of binary mixtures with vitamin B12 by DSC", "format": "physicochemical", "parameters": "key to Compatibility: ++ good compatibility expected below the stated temperature; + compatibility below the stated temperature; ++/− indifferent compatibility, possibly good compatibility below the stated temperature; +/−− indifferent compatibility, appears to be compatible below the stated temperature; −(−−−) (strong) interaction, incompatible; −(−−−) (strong) interaction, incompatible", "conditions": "for Compatibility: binary mixture with vitamin B12, DSC, various gases and temperatures, stated temperature is 60° C. where given; for Comments: binary mixture with vitamin B12, cells wrap, all except Drospirenone and Ethinylestradiol ('very O2-sensitive') continue 'moisture-sensitive'", "protocol": "Both vitamin B12 and 5-methyl-(6S)-tetrahydrofolate are unstable in the presence of atmospheric oxygen and humidity. […] Measurements of the incompatibilities between the intended formulation ingredients were carried out by a thermoanalytical method (DSC, differential scanning calorimetry). This allows incompatibilities to be recognized through low enthalpies of fusion and melting temperatures. These are caused for example by a reduced proportion of crystalline substance and the increase in impurities. In the determination, binary mixtures of excipients or active ingredients in each case with vitamin B12 were investigated, and the compatibility was examined under the influence of various gases and temperatures. […]"}, "[2]": {"conditions": "intake at the right time around conception; cited from earlier work"}, "[3]": {"conditions": "50 rpm, 37° C., 0.03 percent aqueous ascorbic acid solution", "protocol": "For this purpose, the tablets were investigated in an in vitro dissolution test using a USP paddle apparatus at 50 rpm and 37° C. in a 0.03 percent aqueous ascorbic acid solution."}, "[4]": {"conditions": "one month", "description": "An oral formulation is normally prepared by granulation, tableting and film-coating."}, "[5]": {"protocol": "The investigated formulation was prepared (process 2) by mixing the ingredients, granulating with the part of the corn starch used as binder, absorbing the 5-methyl-(6S)-tetrahydrofolate after completion of the granulation process, renewed mixing and tableting. By comparison therewith, polyvinylpyrrolidone was added as binder instead of corn starch to the formulation by process 3.\nThe difference between process 1 and process 2 derives from the time at which the 5-methyl-(6S)-tetrahydrofolate was added during the preparation of the investigated tablet. In process 1, the 5-methyl-(6S)-tetrahydrofolate was present in the mixture even during the granulation, whereas in process 2 it was absorbed only after the granulation."}, "[6]": {"conditions": "vials closed, listed as 5-methyl-(6S)-tetrahydrofolate"}, "[7]": {"conditions": "of Metafolin content per tablet immediately after preparation"}, "[8]": {"conditions": "per tablet, of specified content 100%, immediately after preparation, average"}}, "note": "Like-named read-outs stand apart in the source and are kept apart here."}
{"molecule": "C[C@]12CCC(=O)C=C1[C@@H]1C[C@@H]1[C@H]1[C@@H]3[C@@H]4C[C@@H]4[C@@]4(CCC(=O)O4)[C@@]3(C)CC[C@@H]12", "note": "[Drospirenone]", "values": [{"measurement": "Compatibility", "setting": "[1]", "value": "+"}, {"measurement": "Comments", "setting": "[1]", "value": "O2-sensitive"}]}
{"molecule": "Nc1nc2ncc(CNc3ccc(C(=O)N[C@@H](CCC(=O)O)C(=O)O)cc3)nc2c(=O)[nH]1", "note": "[folic acid]", "values": [{"measurement": "reduction of neural tube defects", "setting": "[2]", "value": "50-70%"}]}
{"molecule": "CN1c2c(nc(N)[nH]c2=O)NC[C@@H]1CNc1ccc(C(=O)N[C@@H](CCC(=O)O)C(=O)O)cc1", "note": "[Metafolin]", "values": [{"measurement": "5-Methyl-(6S)-tetrahydrofolate process 1 dissolution [%]", "setting": "[3]; 0 min", "value": 0, "unit": "%"}, {"measurement": "5-Methyl-(6S)-tetrahydrofolate process 2 dissolution [%]", "setting": "[3]; 0 min", "value": 0, "unit": "%"}, {"measurement": "5-Methyl-(6S)-tetrahydrofolate process 1 dissolution [%]", "setting": "[3]; 10 min", "value": 59.2, "unit": "%"}, {"measurement": "5-Methyl-(6S)-tetrahydrofolate process 2 dissolution [%]", "setting": "[3]; 10 min", "value": 81.4, "unit": "%"}, {"measurement": "5-Methyl-(6S)-tetrahydrofolate process 1 dissolution [%]", "setting": "[3]; 15 min", "value": 66.8, "unit": "%"}, {"measurement": "5-Methyl-(6S)-tetrahydrofolate process 2 dissolution [%]", "setting": "[3]; 15 min", "value": 89.3, "unit": "%"}, {"measurement": "5-Methyl-(6S)-tetrahydrofolate process 1 dissolution [%]", "setting": "[3]; 30 min", "value": 73.1, "unit": "%"}, {"measurement": "5-Methyl-(6S)-tetrahydrofolate process 2 dissolution [%]", "setting": "[3]; 30 min", "value": 91.3, "unit": "%"}, {"measurement": "5-Methyl-(6S)-tetrahydrofolate process 1 dissolution [%]", "setting": "[3]; 45 min", "value": 76.7, "unit": "%"}, {"measurement": "5-Methyl-(6S)-tetrahydrofolate process 2 dissolution [%]", "setting": "[3]; 45 min", "value": 91.1, "unit": "%"}, {"measurement": "5-Methyl-(6S)-tetrahydrofolate process 1 dissolution [%]", "setting": "[3]; 60 min", "value": 75.8, "unit": "%"}, {"measurement": "5-Methyl-(6S)-tetrahydrofolate process 2 dissolution [%]", "setting": "[3]; 60 min", "value": 91.2, "unit": "%"}, {"measurement": "Metafolin content 25° C./60% rH absorption (process 2)", "setting": "[4]; vials closed", "value": 92.5, "unit": "%"}, {"measurement": "Metafolin content 25° C./60% rH granulation (process 1)", "setting": "[4]; vials closed", "value": 74.5, "unit": "%"}, {"measurement": "Metafolin content 40° C./75% rH absorption (process 2)", "setting": "[4]; vials closed", "value": 90.1, "unit": "%"}, {"measurement": "Metafolin content 40° C./75% rH granulation (process 1)", "setting": "[4]; vials closed", "value": 58.9, "unit": "%"}, {"measurement": "Metafolin content 40° C./75% rH absorption (process 2)", "setting": "[4]; [6]", "value": "above 90%"}, {"measurement": "Metafolin content 40° C./75% rH granulation (process 1)", "setting": "[4]; [6]", "value": "~60", "unit": "%"}, {"measurement": "Metafolin content 25° C./60% rH absorption PVP (process 3)", "setting": "[4]; vials open", "value": 89.5, "unit": "%"}, {"measurement": "Metafolin content 25° C./60% rH absorption corn starch (process 2)", "setting": "[4]; vials open", "value": 92.1, "unit": "%"}, {"measurement": "Metafolin content 25° C./60% rH granulation (process 1)", "setting": "[4]; vials open", "value": 63.2, "unit": "%"}, {"measurement": "Metafolin content 40° C./75% rH absorption PVP (process 3)", "setting": "[4]; vials open", "value": 37.7, "unit": "%"}, {"measurement": "Metafolin content 40° C./75% rH absorption corn starch (process 2)", "setting": "[4]; vials open", "value": 67.7, "unit": "%"}, {"measurement": "Metafolin content 40° C./75% rH granulation (process 1)", "setting": "[4]; vials open", "value": 43.4, "unit": "%"}, {"measurement": "Distribution coefficient, absorption (process 2)", "setting": "[5]; [7]", "value": 2.5}, {"measurement": "Distribution coefficient, granulation (process 1)", "setting": "[5]; [7]", "value": 6.1}, {"measurement": "Metafolin content granulation (process 1)", "setting": "[5]; per tablet, immediately after preparation, average", "value": 88.5, "unit": "%"}, {"measurement": "Metafolin content absorption, PVP (process 3)", "setting": "[5]; [8]", "value": 90.5, "unit": "%"}, {"measurement": "Metafolin content absorption, corn starch (process 2)", "setting": "[5]; [8]", "value": 96.1, "unit": "%"}]}
{"molecule": "Magnesium stearate", "values": [{"measurement": "Compatibility", "setting": "[1]", "value": "++/−"}, {"measurement": "Comments", "setting": "[1]", "value": "O2-sensitive,"}]}
{"molecule": "OC[C@H]1O[C@@H](O[C@H]2[C@H](O)[C@@H](O)C(O)O[C@@H]2CO)[C@H](O)[C@@H](O)[C@H]1O", "note": "(stereo partly drawn) [Lactose]", "values": [{"measurement": "Compatibility", "setting": "[1]", "value": "+"}, {"measurement": "Comments", "setting": "[1]", "value": "O2-sensitive,"}]}
